Laboratory results: patent publication US20100197765A1, “METHOD FOR PROMOTING THE EXPRESSION OF P53, AND P53 EXPRESSION PROMOTER FOR USE IN THE METHOD” (THE UNIVERSITY OF TOKUSHIMA, priority 2007, published 2010)

How the values were obtained:
HCT116 cells = test: p53 mRNA, vegf IresRNA and vegf mRNA in HCT116 cells exposed to genotoxic stress (Northern); format: cell-based, human
Description: HCT116 cells (parent cells) were exposed to genotoxic stress that upregulates the expression of p53 mRNA. […] Also, HCT116 cells were exposed to UV-B for 1 minute. Then, after placing them under non-exposed conditions for a predetermined time (6, 12 hours), the expressions were examined in the same manner as in the above.

p53 = p53 mRNA (quantitative RT-PCR) and protein in HCT116 clones stably expressing vegf IresRNA, cisplatin treated; format: cell-based, human; conditions: mock HCT116 cells, cisplatin 5 μg/mL, 6 h, 12 h vs 0 h
Source text: Full length cDNAs of vegf IresRNA having a sequence from base 600 to base 879 in 5′ UTR of vegf mRNA of SEQ ID NO. 1 were inserted into plasmid vectors pcDNA3.1 (Invitrogen). Thus, vegf IresRNA expression vectors (pcDNA-vegf Ires) were produced. These vegf IresRNA expression vectors (pcDNA-vegf Ires) were transfected into HCT116 (parent cells, wild-type p53), and two types of cell clones that stably overexpress vegf IresRNA were selected with an antibiotic G418. The thus-established two types of vegf IresRNA-expressing cells are hereinafter referred to as vegf Ires-#1 and vegf Ires-#2. Furthermore, as a mock treatment, plasmid vectors pcDNA3.1 lacking the above-described insert were transfected into HCT116 cells, and the transfect cell clones were selected with the antibiotic G418. These cell clones were hereinafter referred to as a mock. Then, expression of vegf IresRNA in these cell clones was examined by Northern blotting.
Subsequently, each of these vegf IresRNA-stably expressing cell strains was treated in the presence or absence of 5 μg/mL of an anticancer agent cisplatinin for a predetermined time (0, 6, 8, 12, 24 h). Thereafter, the expression level of p53 mRNA was analyzed by quantitative RT-PCR, and the expression level of p53 protein was analyzed by Western immunoblotting. […]

For `N.N.[Cl][Pt][Cl]` [cisplatin], the “expression of the p53 mRNA” value (HCT116 cells; HCT116, 5-FU 80 μmol/L, MMC 6 μg/ml or cisplatin 5 μg/ml, 0, 6, 12 hours) was “increased”, the “expression of the vegf IresRNA” value (HCT116 cells; HCT116, cisplatin 5 μg/ml) was “decreased” and the “expressions of p53 mRNA and p53 protein” value (p53) was “significant increase”.
